# Values quoted from earlier work in patent US8679052B2, “Method for accurately determining concentrations of diffusible materials” (priority 2009, dated 2014).
# Tested on: red blood cells
# Details: red blood cells suspended in buffer; in the first 1-2 minutes
structure (smiles),measurement,value
CC(=O)/N=c1/sc(S(N)(=O)=O)nn1C [methazolamide],decrease of buffer concentration (uptake by red blood cells),50%
